19 molecules from patent publication US10941152B2, “Pyrazole compounds as modulators of FSHR and uses thereof” (TOCOPHERX, INC., priority 2014, dated 2021) can be followed below.

Molecules are shown by their SMILES. A value given as a limit tells only on which side of the number the result lay.

One test deals with T1, FSHR (Homo sapiens, UniProt P23945).
T1 construct: expressed in transfected cells; host or cells: CHO (Cho-FSHR-LUC-1-1-43)
T1 sequence (P23945 18-695): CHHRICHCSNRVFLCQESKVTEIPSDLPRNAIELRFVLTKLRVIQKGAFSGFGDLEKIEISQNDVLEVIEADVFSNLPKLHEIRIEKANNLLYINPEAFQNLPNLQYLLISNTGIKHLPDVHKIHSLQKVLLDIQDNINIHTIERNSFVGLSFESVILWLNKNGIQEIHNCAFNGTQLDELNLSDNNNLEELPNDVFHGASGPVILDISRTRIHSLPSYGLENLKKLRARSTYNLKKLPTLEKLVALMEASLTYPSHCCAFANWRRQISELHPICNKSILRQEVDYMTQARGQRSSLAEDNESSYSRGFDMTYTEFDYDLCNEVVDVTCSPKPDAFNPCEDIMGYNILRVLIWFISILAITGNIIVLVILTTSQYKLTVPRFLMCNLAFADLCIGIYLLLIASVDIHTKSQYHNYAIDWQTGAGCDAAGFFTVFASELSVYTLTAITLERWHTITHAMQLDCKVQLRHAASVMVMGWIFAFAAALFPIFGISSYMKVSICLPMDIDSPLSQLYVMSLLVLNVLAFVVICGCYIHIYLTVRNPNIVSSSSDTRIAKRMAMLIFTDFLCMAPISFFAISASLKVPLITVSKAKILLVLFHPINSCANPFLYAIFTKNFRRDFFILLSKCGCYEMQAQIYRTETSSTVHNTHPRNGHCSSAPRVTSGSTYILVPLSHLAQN
Nature of the test: EC50 of cyclic AMP production in CHO FSHR cells + EC20 FSH (Assay A). The test is classed as cell-based. As to conditions: cyclic AMP production in CHO FSHR cells + EC20 FSH (0.265 pM), HTRF. Put shortly:
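cAMP was detected by HTRF as the 665/620 nm ratio. The CHO-FSHR cells had first been exposed for 1 h at 37° C to test compound together with 0.265 pM FSH (EC20) and 200 μM IBMX. Responses are given as percent of the FSH standard maximum.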
(In general: TR-FRET usually uses a lanthanide donor and a delayed reading to cut background.)

Test [1] deals with T2, follicle-stimulating hormone (FSH) receptor (Rattus norvegicus, UniProt P20395).
T2 construct: endogenous in cells; host or cells: rat granulosa cells
T2 sequence (P20395 18-692): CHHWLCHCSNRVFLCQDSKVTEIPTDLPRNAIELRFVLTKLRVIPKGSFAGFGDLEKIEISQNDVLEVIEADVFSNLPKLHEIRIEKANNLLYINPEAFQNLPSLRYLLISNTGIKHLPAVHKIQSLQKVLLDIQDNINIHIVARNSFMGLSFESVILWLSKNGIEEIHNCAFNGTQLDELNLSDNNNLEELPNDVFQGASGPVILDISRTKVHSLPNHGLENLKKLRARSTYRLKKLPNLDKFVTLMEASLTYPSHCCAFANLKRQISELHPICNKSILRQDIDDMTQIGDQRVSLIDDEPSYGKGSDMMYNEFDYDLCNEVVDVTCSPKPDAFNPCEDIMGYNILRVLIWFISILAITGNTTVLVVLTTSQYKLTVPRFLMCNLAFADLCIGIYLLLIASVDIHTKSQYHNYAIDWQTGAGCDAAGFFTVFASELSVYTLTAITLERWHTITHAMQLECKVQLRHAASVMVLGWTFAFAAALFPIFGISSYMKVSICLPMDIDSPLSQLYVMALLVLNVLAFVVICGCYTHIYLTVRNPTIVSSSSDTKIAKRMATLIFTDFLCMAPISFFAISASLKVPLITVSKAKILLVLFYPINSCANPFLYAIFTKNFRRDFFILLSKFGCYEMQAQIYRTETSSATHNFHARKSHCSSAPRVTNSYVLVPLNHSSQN
Put plainly: Rat granulosa EC50 FSH (Assay B). The test is classed as cell-based. The protocol:
Example 25. Rat granulosa EC50 FSH (Assay B)
The assay was performed pursuant to the teaching of Yanofsky et al. (2006) Allosteric activation of the follicle-stimulating hormone (FSH) receptor by selective, nonpeptide agonists (JBC 281(19): 13226-13233, which is incorporated by reference in the disclosure of the invention).

Usually EC50 stands for the midpoint of the concentration-response curve. As for `COc1cc2c(cc1-c1cc(C(N)=O)ncc1F)-c1c(c(C(=O)N(C)C(C)(C)C)nn1-c1cc(Cl)cc(Cl)c1)CO2` [Compound 68, N-tert-butyl-8-(2-carbamoyl-5-fluoropyridin-4-yl)-1-(3,5-dichlorophenyl)-7-methoxy-N-methyl-1,4-dihydrochromeno[4,3-c]pyrazole-3-carboxamide], the EC50 at FSHR is below 10 nM; in test [1], 101 to 500 nM.

Take `COc1cc(OC)cc(-n2nc(C(=O)N3CC[S+]([O-])CC3(C)C)c3c2-c2cc(-c4ccn(C)n4)c(OC)cc2OC3)c1` (centres unmarked) [Compound 39, (1-(3,5-dimethoxyphenyl)-7-methoxy-8-(1-methyl-1H-pyrazol-3-yl)-1,4-dihydrochromeno[4,3-c]pyrazol-3-yl)-(S-oxo-3,3-dimethylthiomorpholino)methanone]: the EC50 on FSHR was 10 to 100 nM; in test [1] it was 101 to 500 nM.

On to `COc1cc(OC)cc(-n2nc(C(=O)N(C)C(C)(C)C)c3c2-c2cc(-c4cncc(C(N)=O)c4)c(OC)cc2OC3)c1` [Compound 160], for which the EC50 on FSHR is below 10 nM; in test [1], 10 to 100 nM.

Regarding `COc1cc2c(cc1-c1cncc(CO)c1)-c1c(c(C(=O)N(C)C(C)(C)C)nn1-c1cc(Cl)cc(Cl)c1)CO2` [Compound 23, N-tert-butyl-1-(3,5-dichlorophenyl)-8-(5-(hydroxymethyl)pyridin-3-yl)-7-methoxy-N-methyl-1,4-dihydrochromeno[4,3-c]pyrazole-3-carboxamide], the EC50 was below 10 nM at FSHR and 10 to 100 nM in test [1].

With `COc1cc(Cl)cc(-n2nc(C(=O)N3CCOCC3(C)C)c3c2-c2cc(-c4cncc(C#N)c4)c(OC)cc2OC3)c1` [Compound 34, 5-(1-(3-chloro-5-methoxyphenyl)-3-(3,3-dimethylmorpholine-4-carbonyl)-7-methoxy-1,4-dihydrochromeno[4,3-c]pyrazol-8-yl)nicotinonitrile], the values for the EC50 (on FSHR; in test [1]) were below 10 nM and 10 to 100 nM, respectively.

For the molecule `COc1cc(Cl)cc(-n2nc(C(=O)N(C)C(C)(C)C)c3c2-c2cc(-c4ccn(C)n4)c(OC)cc2OC3)c1` [Compound 32, N-tert-butyl-1-(3-chloro-5-methoxyphenyl)-7-methoxy-N-methyl-8-(1-methyl-1H-pyrazol-3-yl)-1,4-dihydrochromeno[4,3-c]pyrazole-3-carboxamide], the EC50 is 10 to 100 nM on FSHR and 101 to 500 nM in test [1].

Regarding `COc1cc2c(cc1-c1cc(C(=O)O)ccc1F)-c1c(c(C(=O)N(C)C(C)(C)C)nn1-c1cc(Cl)cc(Cl)c1)CO2` [Compound 82, 3-(3-(tert-butyl(methyl)carbamoyl)-1-(3,5-dichlorophenyl)-7-methoxy-1,4-dihydrochromeno[4,3-c]pyrazol-8-yl)-4-fluorobenzoic acid], the EC50 at FSHR was below 10 nM; in test [1], above 500 nM.

In the case of `COc1cc2c(cc1-c1cnn(CC(=O)N3CCC3)c1)-c1c(c(C(=O)N(C)C(C)(C)C)nn1-c1cc(Cl)cc(Cl)c1)CO2` [Compound 95, 8-(1-(2-(azetidin-1-yl)-2-oxoethyl)-1H-pyrazol-4-yl)-N-tert-butyl-1-(3,5-dichlorophenyl)-7-methoxy-N-methyl-1,4-dihydrochromeno[4,3-c]pyrazole-3-carboxamide], the EC50 (at FSHR; in test [1]) was 10 to 100 nM in each case.

For the molecule `COc1cc2c(cc1-c1cnn(CC(=O)O)c1)-c1c(c(C(=O)N3CCOCC3(C)C)nn1-c1cc(F)cc(Cl)c1)CO2` [Compound 84, 2-(4-(1-(3-chloro-5-fluorophenyl)-3-(3,3-dimethylmorpholine-4-carbonyl)-7-methoxy-1,4-dihydrochromeno[4,3-c]pyrazol-8-yl)-1H-pyrazol-1-yl)acetic acid], the values for the EC50 (on FSHR; in test [1]) were 10 to 100 nM and 101 to 500 nM, respectively.

Turning to `COc1cc2c(cc1-c1cccnc1F)-c1c(c(C(=O)N3CCOCC3(C)C)nn1-c1ccsc1)CO2` [Compound 61, (3,3-dimethylmorpholino)(8-(2-fluoropyridin-3-yl)-7-methoxy-1-(thiophen-3-yl)-1,4-dihydrochromeno[4,3-c]pyrazol-3-yl)methanone], the EC50 on FSHR is below 10 nM; in test [1] it was 10 to 100 nM.

`COc1cc2c(cc1-c1cncc(C#N)c1)-c1c(c(C(=O)N3CC[S+]([O-])CC3(C)C)nn1-c1cc(F)cc(F)c1)CO2` (centres unmarked) [Compound 49]: the EC50 is below 10 nM at FSHR and 10 to 100 nM in test [1].

Turning to `COc1cc2c(cc1-c1ccccc1F)-c1c(c(C(=O)N(C)C(C)(C)C)nn1-c1ccsc1)CO2` [Compound 63, N-tert-butyl-8-(2-fluorophenyl)-7-methoxy-N-methyl-1-(thiophen-3-yl)-1,4-dihydrochromeno[4,3-c]pyrazole-3-carboxamide], the EC50 on FSHR fell in the range of 10 to 100 nM; in test [1] it was 101 to 500 nM.

Turning to `COc1cc2c(cc1-c1cncc(C(N)=O)c1C)-c1c(c(C(=O)N(C)C(C)(C)C#N)nn1-c1cc(Cl)cc(Cl)c1)CO2` [Compound 118, 8-(5-carbamoyl-4-methylpyridin-3-yl)-N-(2-cyanopropan-2-yl)-1-(3,5-dichlorophenyl)-7-methoxy-N-methyl-1,4-dihydrochromeno[4,3-c]pyrazole-3-carboxamide], the values for the EC50 (on FSHR; in test [1]) were below 10 nM and 10 to 100 nM, respectively.

As for `COc1cc2c(cc1-c1cc(C#N)ccn1)-c1c(c(C(=O)N(C)C(C)(C)C)nn1-c1cc(Cl)cc(Cl)c1)CO2` [Compound 26, N-tert-butyl-8-(4-cyanopyridin-2-yl)-1-(3,5-dichlorophenyl)-7-methoxy-N-methyl-1,4-dihydrochromeno[4,3-c]pyrazole-3-carboxamide], the 50% effective concentration (EC50) lay in the range of 10 to 100 nM on FSHR and 101 to 500 nM in test [1].

With `COc1cc2c(cc1-c1cncc(NC(N)=O)c1)-c1c(c(C(=O)N(C)C(C)(C)C)nn1-c1cc(Cl)cc(Cl)c1)CO2` [Compound 183, N-tert-butyl-1-(3,5-dichlorophenyl)-7-methoxy-N-methyl-8-(5-ureidopyridin-3-yl)-1,4-dihydrochromeno[4,3-c]pyrazole-3-carboxamide], the EC50 is below 10 nM at FSHR and 10 to 100 nM in test [1].

Consider `COc1cc2c(cc1-c1cc(C(N)=O)c[n+]([O-])c1)-c1c(c(C(=O)N3CCOCC3(C)C)nn1-c1cc(Cl)cc(Cl)c1)CO2` [Compound 174, 3-carbamoyl-5-(1-(3,5-dichlorophenyl)-3-(3,3-dimethylmorpholine-4-carbonyl)-7-methoxy-1,4-dihydrochromeno[4,3-c]pyrazol-8-yl)pyridine 1-oxide], for which the EC50 at FSHR is below 10 nM; in test [1], 10 to 100 nM.

For the molecule `COc1cc2c(cc1-c1ccn(C)n1)-c1c(c(C(=O)N(C)C(C)(C)C)nn1-c1cc(C)cc(Cl)c1)CO2` [Compound 30, N-tert-butyl-1-(3-chloro-5-methylphenyl)-7-methoxy-N-methyl-8-(1-methyl-1H-pyrazol-3-yl)-1,4-dihydrochromeno[4,3-c]pyrazole-3-carboxamide], the EC50 (on FSHR; in test [1]) was 101 to 500 nM in each case.

As to `COc1cc2c(cc1-c1cnc(C)c(C(N)=O)c1)-c1c(c(C(=O)N(C)C(C)(C)C)nn1-c1cc(Cl)cc(Cl)c1)CO2` [Compound 170], the EC50 was below 10 nM on FSHR and 101 to 500 nM in test [1].

As for `COc1cc(F)cc(-n2nc(C(=O)N(C)C(C)(C)C)c3c2-c2cc(-c4ccn(C)n4)c(OC)cc2OC3)c1` [Compound 52, N-tert-butyl-1-(3-fluoro-5-methoxyphenyl)-7-methoxy-N-methyl-8-(1-methyl-1H-pyrazol-3-yl)-1,4-dihydrochromeno[4,3-c]pyrazole-3-carboxamide], the values for the EC50 (on FSHR; in test [1]) were 10 to 100 nM and 101 to 500 nM, respectively.
